Results taken from US20240123079A1 (Seagen Inc., priority 2021, published 2024).

test system: THP1-Dual™ reporter cells; assay: THP1-Dual cell reporter assay (IRF-Lucia luciferase reporter); type: cell-based, human; conditions: ADCs: drug linker conjugated to a targeted mAb, 48 h
How it was run: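 THP1-Dual monocytic cells (~100,000/well) were exposed to compound for 24 h (ADCs 48 h). Secreted IRF-driven Lucia luciferase in the supernatant was quantified by QUANTI-Luc luminescence.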

Compound	EC50 (ng/mL)	EC50
CCc1cc(C(=O)Nc2nc3cc(C(N)=O)cc(OCCCN(C)C(=O)CCN4C(=O)C=CC4=O)c3n2C/C=C/Cn2c(NC(=O)c3cc(C)nn3CC)nc3cc(C(N)=O)cc(OC)c32)n(C)n1 [Compound 104]	>10,000 ng/mL	–
CCn1nc(C)cc1C(=O)Nc1nc2cc(S(N)(=O)=O)ccc2n1C/C=C/Cn1c(NC(=O)c2cc(C)nn2C)nc2cc(C(N)=O)cc(OCCCOC3CN(C(=O)CCN4C(=O)C=CC4=O)C3)c21 [Compound 147, (E)-2-(1,3-dimethyl-1H-pyrazole-5-carboxamido)-7-(3-((1-(3-(2,5-dioxo-2,5-dihydro-1H-pyrrol-1-yl)propanoyl)azetidin-3-yl)oxy)propoxy)-1-(4-(2-(1-ethyl-3-methyl-1H-pyrazole-5-carboxamido)-5-sulfamoyl-1H-benzo[d]imidazol-1-yl)but-2-en-1-yl)-1H-benzo[d]imidazole-5-carboxamide]	>10,000 ng/mL	–
CCn1nc(C)cc1C(=O)Nc1nc2cc(C(N)=O)cc(OC)c2n1C/C=C/Cn1c(NC(=O)c2cc(C)nn2CC)nc2cc(C(N)=O)cc(OCCCN(C(=O)CCN3C(=O)C=CC3=O)C3CC3)c21 [Compound 133, (E)-1-(4-(5-carbamoyl-2-(1-ethyl-3-methyl-1H-pyrazole-5-carboxamido)-7-methoxy-1H-benzo[d]imidazol-1-yl)but-2-en-1-yl)-7-(3-(N-cyclopropyl-3-(2,5-dioxo-2,5-dihydro-1H-pyrrol-1-yl)propanamido)propoxy)-2-(1-ethyl-3-methyl-1H-pyrazole-5-carboxamido)-1H-benzo[d]imidazole-5-carboxamide]	–	0.0122 mg/L
CCn1nc(C)cc1C(=O)Nc1nc2cc(S(N)(=O)=O)ccc2n1C/C=C/Cn1c(NC(=O)c2cc(C)nn2CC)nc2cc(C(N)=O)cc(OCCCN(C)C(=O)CCN3C(=O)C=CC3=O)c21 [Compound 25, (E)-7-(3-(3-(2,5-dioxo-2,5-dihydro-1H-pyrrol-1-yl)-N-methylpropanamido)propoxy)-2-(1-ethyl-3-methyl-1H-pyrazole-5-carboxamido)-1-(4-(2-(1-ethyl-3-methyl-1H-pyrazole-5-carboxamido)-5-sulfamoyl-1H-benzo[d]imidazol-1-yl)but-2-en-1-yl)-1H-benzo[d]imidazole-5-carboxamide]	–	0.307 mg/L
CCn1nc(C)cc1C(=O)Nc1nc2cc(C(N)=O)cc(OC)c2n1C/C=C/Cn1c(NC(=O)c2cc(C)sn2)nc2cc(C(N)=O)cc(OCCCN(C)C(=O)CCN3C(=O)C=CC3=O)c21 [Compound 107]	>10,000 ng/mL	–
CCn1nc(C)cc1C(=O)Nc1nc2cc(C(N)=O)cc(OC)c2n1C/C=C/Cn1c(NC(=O)c2cc(C)nn2C)nc2cc(C(N)=O)cc(OCCCN(C)C(=O)CCN3C(=O)C=CC3=O)c21 [Compound 105]	–	0.0525 mg/L
CCn1nc(C)cc1C(=O)Nc1nc2cc(C(N)=O)cc(OC)c2n1C/C=C/Cn1c(NC(=O)c2cc(C)nn2CC)nc2cc(C(N)=O)cc(OCCCN(C)C(=O)[C@@H](NC(=O)CCN3C(=O)C=CC3=O)[C@@H](C)OC)c21 [Compound 125]	–	0.0014 mg/L
CCn1nc(C)cc1C(=O)Nc1nc2cc(S(N)(=O)=O)ccc2n1C/C=C/Cn1c(NC(=O)c2cc(C)nn2CC)nc2cc(C(N)=O)cc(OCCC3CN(C(=O)CCN4C(=O)C=CC4=O)C3)c21 [Compound 144, (E)-7-(2-(1-(3-(2,5-dioxo-2,5-dihydro-1H-pyrrol-1-yl)propanoyl)azetidin-3-yl)ethoxy)-2-(1-ethyl-3-methyl-1H-pyrazole-5-carboxamido)-1-(4-(2-(1-ethyl-3-methyl-1H-pyrazole-5-carboxamido)-5-sulfamoyl-1H-benzo[d]imidazol-1-yl)but-2-en-1-yl)-1H-benzo[d]imidazole-5-carboxamide]	>10,000 ng/mL	–

same assay, conditions: Homo sapiens, THP1-Dual, 24 h, free compounds, 24 h, Lucia reporter signal; read-out: EC50

Compound	EC50
CCn1nc(C)cc1C(=O)Nc1nc2cc(C(N)=O)cc(OC)c2n1C/C=C/Cn1c(NC(=O)c2cc(C)nn2CC)nc2cc(C(N)=O)cc(OCCCN(C)C(=O)CCN3C(=O)C=CC3=O)c21 [Compound 12, (E)-1-(4-(5-carbamoyl-2-(1-ethyl-3-methyl-1H-pyrazole-5-carboxamido)-7-methoxy-1H-benzo[d]imidazol-1-yl)but-2-en-1-yl)-7-(3-(3-(2,5-dioxo-2,5-dihydro-1H-pyrrol-1-yl)-N-methylpropanamido)propoxy)-2-(1-ethyl-3-methyl-1H-pyrazole-5-carboxamido)-1H-benzo[d]imidazole-5-carboxamide]	0.037 µM

same assay, conditions: Homo sapiens, THP1-Dual; free compounds, 24 h, Lucia reporter signal; read-out: EC50

Compound	EC50
CCn1nc(C)cc1C(=O)Nc1nc2cc(C(N)=O)cc(OC)c2n1C/C=C/Cn1c(NC(=O)c2cc(C)nn2CC)nc2cc(C(N)=O)cc(OCCCN(C)C(=O)[C@@H](N)CC(C)C)c21 [Compound 114]	0.0094 µM
CCc1oc(C)cc1C(=O)Nc1nc2cc(C(N)=O)cc(OCCCNC)c2n1C/C=C/Cn1c(NC(=O)c2cc(C)nn2CC)nc2cc(C(N)=O)cc(OC)c21 [Compound 89]	1.32 µM
CCn1nc(C)cc1C(=O)Nc1nc2cc(C(N)=O)cc(OC)c2n1C/C=C/Cn1c(NC(=O)c2cc(C)nn2C)nc2cc(C(N)=O)cc(OCCCOC3CNC3)c21 [Compound 142, (E)-7-(3-(azetidin-3-yloxy)propoxy)-1-(4-(5-carbamoyl-2-(1-ethyl-3-methyl-1H-pyrazole-5-carboxamido)-7-methoxy-1H-benzo[d]imidazol-1-yl)but-2-en-1-yl)-2-(1,3-dimethyl-1H-pyrazole-5-carboxamido)-1H-benzo[d]imidazole-5-carboxamide]	1.12 µM
CCn1nc(C)cc1C(=O)Nc1nc2cc(S(N)(=O)=O)ccc2n1C/C=C/Cn1c(NC(=O)c2cc(C)nn2CC)nc2cc(C(N)=O)cc(OCCCN(C)C(=O)OC(C)(C)C)c21 [Compound 25f]	0.012 µM
CCc1nc(C)oc1C(=O)Nc1nc2cc(C(N)=O)cc(OCCCOC3CN(C(=O)CCN4C(=O)CC(SC[C@H](N)C(=O)O)C4=O)C3)c2n1C/C=C/Cn1c(NC(=O)c2cc(C)nn2CC)nc2cc(C(N)=O)cc(OC)c21 (stereo partly drawn) [Compound 156, S-(1-(3-(3-(3-((5-carbamoyl-1-((E)-4-(5-carbamoyl-2-(1-ethyl-3-methyl-1H-pyrazole-5-carboxamido)-7-methoxy-1H-benzo[d]imidazol-1-yl)but-2-en-1-yl)-2-(4-ethyl-2-methyloxazole-5-carboxamido)-1H-benzo[d]imidazol-7-yl)oxy)propoxy)azetidin-1-yl)-3-oxopropyl)-2,5-dioxopyrrolidin-3-yl)-L-cysteine]	1.56 µM
CCn1nc(C)cc1C(=O)Nc1nc2cc(C(N)=O)cc(OC)c2n1C/C=C/Cn1c(NC(=O)c2cc(C)on2)nc2cc(C(N)=O)cc(OCCCNC)c21 [Compound 81]	> 10 µM
COc1cc(C(N)=O)cc2nc(NC(=O)c3ccco3)n(C/C=C/Cn3c(NC(=O)c4ccco4)nc4cc(C(N)=O)cc(O)c43)c12 [Compound 33]	> 10 µM
COc1cc(C(N)=O)cc2nc(NC(=O)Cn3cccn3)n(C/C=C/Cn3c(NC(=O)Cn4cccn4)nc4cc(C(N)=O)cc(O)c43)c12 [Compound 47]	> 10 µM
COc1cc(C(=O)Nc2nc3cc(C(N)=O)cc(O)c3n2C/C=C/Cn2c(NC(=O)c3cc(OC)nn3C)nc3cc(C(N)=O)cc(OC)c32)n(C)n1 [Compound 51]	> 10 µM
CC[C@H](C)[C@H](N)C(=O)N(C)CCCOc1cc(C(N)=O)cc2nc(NC(=O)c3cc(C)nn3CC)n(C/C=C/Cn3c(NC(=O)c4cc(C)nn4CC)nc4cc(C(N)=O)cc(OC)c43)c12 [Compound 115]	0.0174 µM
CCc1cc(C(=O)Nc2nc3cc(C(N)=O)cc(O)c3n2C/C=C/Cn2c(NC(=O)c3cc(CC)nn3C)nc3cc(C(N)=O)cc(OC)c32)n(C)n1 [Compound 53]	> 10 µM
CCn1nc(C)cc1C(=O)Nc1nc2cc(C(N)=O)cc(OC)c2n1C/C=C/Cn1c(NC(=O)c2ccnn2CC)nc2cc(C(N)=O)cc(OCCCNC)c21 [Compound 91]	0.35 µM
CCn1nc(C)cc1C(=O)Nc1nc2cc(C(=O)O)cc(OC)c2n1C/C=C/Cn1c(NC(=O)c2cc(C)nn2CC)nc2cc(C(N)=O)cc(OCCCN(C)C(=O)CCN3C(=O)CC(SC[C@H](N)C(=O)O)C3=O)c21 (stereo partly drawn) [Compound 130, 1-((E)-4-(7-(3-(3-(3-(((R)-2-amino-2-carboxyethyl)thio)-2,5-dioxopyrrolidin-1-yl)-N-methylpropanamido)propoxy)-5-carbamoyl-2-(1-ethyl-3-methyl-1H-pyrazole-5-carboxamido)-1H-benzo[d]imidazol-1-yl)but-2-en-1-yl)-2-(1-ethyl-3-methyl-1H-pyrazole-5-carboxamido)-7-methoxy-1H-benzo[d]imidazole-5-carboxylicacid]	2.26 µM
CCn1nc(C)cc1C(=O)Nc1nc2cc(C(N)=O)cc(OC)c2n1C/C=C/Cn1c(NC(=O)c2cc(C)sn2)nc2cc(C(N)=O)cc(OCCCNC)c21 [Compound 90]	> 10 µM
CCc1cc(C(=O)Nc2nc3cc(C(N)=O)cc(OCCCNC)c3n2C/C=C/Cn2c(NC(=O)c3cc(C)nn3CC)nc3cc(C(N)=O)cc(OC)c32)n(C)n1 [Compound 87]	> 10 µM
CCn1nc(C)cc1C(=O)Nc1nc2cc(C(N)=O)cc(OC)c2n1C/C=C/Cn1c(NC(=O)c2cc(C)nn2CC)nc2cc(C(N)=O)cc(OCCCN(C)C(=O)[C@@H](N)Cc3cn(C)cn3)c21 [Compound 119]	0.0499 µM
CCn1nc(C)cc1C(=O)Nc1nc2cc(C(N)=O)cc(OC)c2n1C/C=C/Cn1c(NC(=O)c2cc(C)nn2CC)nc2cc(C(N)=O)cc(OCCCN(C)C(=O)[C@@H](N)CCC(=O)OC)c21 [Compound 117]	0.0146 µM
COc1cc(C(N)=O)cc2nc(NC(=O)c3cc(C)n[nH]3)n(C/C=C/Cn3c(NC(=O)c4cc(C)n[nH]4)nc4cc(C(N)=O)cc(O)c43)c12 [Compound 55]	> 10 µM
CCn1nc(C)cc1C(=O)Nc1nc2cc(S(N)(=O)=O)ccc2n1C/C=C/Cn1c(NC(=O)c2cc(C)nn2CC)nc2cc(C(N)=O)cc(OCCCNC)c21 [Compound 25g]	1.58 µM
CCn1nc(C)cc1C(=O)Nc1nc2cc(C(N)=O)cc(OC)c2n1C/C=C/Cn1c(NC(=O)c2cccnn2)nc2cc(C(N)=O)cc(OCCCNC)c21 [Compound 79]	> 10 µM
CCn1nc(C)cc1C(=O)Nc1nc2cc(C(N)=O)cc(OC)c2n1C/C=C/Cn1c(NC(=O)c2cc(C)nn2CC)nc2cc(C(N)=O)cc(OCCCN(C)C(=O)[C@@H](N)[C@@H](C)OC)c21 [Compound 120]	0.0052 µM
